The values below come from PMC12385147, “Discovery of Novel 2-Substituted Aniline Pyrimidine Based Derivatives as Potent Mer/c-Met Dual Inhibitors with Improvement Bioavailability” (Biomolecules, 2025).

For data set [1] the following is noted: cited from earlier work.
A short description of data set [2]: Plasma protein binding, equilibrium dialysis, rat plasma. As to conditions: 1 μM. The data set is classed as in vitro ADME. (In general: In equilibrium dialysis only unbound substance equilibrates across the membrane.)
In data set [3] the target is T1, c-Met kinase (Homo sapiens, UniProt P08581).
T1 construct: purchased Invitrogen (Shanghai, China)
T1 sequence (P08581 25-1390): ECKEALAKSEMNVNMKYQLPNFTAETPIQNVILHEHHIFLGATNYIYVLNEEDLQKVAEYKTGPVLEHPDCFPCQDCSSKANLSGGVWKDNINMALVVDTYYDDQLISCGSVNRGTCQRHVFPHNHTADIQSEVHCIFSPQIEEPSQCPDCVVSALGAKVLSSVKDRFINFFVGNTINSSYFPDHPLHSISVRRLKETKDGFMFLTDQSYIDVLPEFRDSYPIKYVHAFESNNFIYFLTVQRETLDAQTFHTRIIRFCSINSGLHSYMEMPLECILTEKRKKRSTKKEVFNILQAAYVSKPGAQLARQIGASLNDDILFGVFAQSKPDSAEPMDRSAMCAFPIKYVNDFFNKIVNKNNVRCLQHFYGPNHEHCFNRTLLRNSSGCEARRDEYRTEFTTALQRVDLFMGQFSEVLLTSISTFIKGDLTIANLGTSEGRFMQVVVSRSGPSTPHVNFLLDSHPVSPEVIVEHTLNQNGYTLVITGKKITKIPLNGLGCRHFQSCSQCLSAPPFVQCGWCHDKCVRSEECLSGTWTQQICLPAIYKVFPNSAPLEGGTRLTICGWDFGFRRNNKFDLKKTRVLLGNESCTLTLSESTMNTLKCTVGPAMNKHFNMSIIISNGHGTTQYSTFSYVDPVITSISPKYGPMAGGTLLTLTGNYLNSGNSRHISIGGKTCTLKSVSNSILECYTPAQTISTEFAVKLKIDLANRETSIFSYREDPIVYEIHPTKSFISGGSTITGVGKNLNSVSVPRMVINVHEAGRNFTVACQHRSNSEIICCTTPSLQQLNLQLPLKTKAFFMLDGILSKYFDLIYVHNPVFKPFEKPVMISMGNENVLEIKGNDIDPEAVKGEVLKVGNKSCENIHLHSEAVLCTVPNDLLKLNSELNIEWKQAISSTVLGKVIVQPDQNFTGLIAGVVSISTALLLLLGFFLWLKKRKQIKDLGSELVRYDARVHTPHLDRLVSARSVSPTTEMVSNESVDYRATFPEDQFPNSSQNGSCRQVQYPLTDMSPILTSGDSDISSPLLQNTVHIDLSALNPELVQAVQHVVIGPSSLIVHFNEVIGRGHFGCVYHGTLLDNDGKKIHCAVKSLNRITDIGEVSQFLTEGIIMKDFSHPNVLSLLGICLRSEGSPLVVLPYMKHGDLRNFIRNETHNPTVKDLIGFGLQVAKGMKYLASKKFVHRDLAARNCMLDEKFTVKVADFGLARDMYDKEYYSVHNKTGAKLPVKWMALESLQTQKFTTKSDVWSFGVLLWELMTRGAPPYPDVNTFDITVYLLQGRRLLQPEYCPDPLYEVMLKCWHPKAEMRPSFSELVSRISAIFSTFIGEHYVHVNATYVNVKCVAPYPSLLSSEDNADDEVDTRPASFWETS
In words: c-Met kinase inhibition assay (TK-Sub-Biotin / cryptate detection). The data set is classed as biochemical. The note with it: for IC50: means from three independent experiments.

In data set [4] the target is T2, Mer kinase (Homo sapiens, UniProt Q12866).
T2 construct: purchased Invitrogen (Shanghai, China)
T2 sequence (Q12866 21-999): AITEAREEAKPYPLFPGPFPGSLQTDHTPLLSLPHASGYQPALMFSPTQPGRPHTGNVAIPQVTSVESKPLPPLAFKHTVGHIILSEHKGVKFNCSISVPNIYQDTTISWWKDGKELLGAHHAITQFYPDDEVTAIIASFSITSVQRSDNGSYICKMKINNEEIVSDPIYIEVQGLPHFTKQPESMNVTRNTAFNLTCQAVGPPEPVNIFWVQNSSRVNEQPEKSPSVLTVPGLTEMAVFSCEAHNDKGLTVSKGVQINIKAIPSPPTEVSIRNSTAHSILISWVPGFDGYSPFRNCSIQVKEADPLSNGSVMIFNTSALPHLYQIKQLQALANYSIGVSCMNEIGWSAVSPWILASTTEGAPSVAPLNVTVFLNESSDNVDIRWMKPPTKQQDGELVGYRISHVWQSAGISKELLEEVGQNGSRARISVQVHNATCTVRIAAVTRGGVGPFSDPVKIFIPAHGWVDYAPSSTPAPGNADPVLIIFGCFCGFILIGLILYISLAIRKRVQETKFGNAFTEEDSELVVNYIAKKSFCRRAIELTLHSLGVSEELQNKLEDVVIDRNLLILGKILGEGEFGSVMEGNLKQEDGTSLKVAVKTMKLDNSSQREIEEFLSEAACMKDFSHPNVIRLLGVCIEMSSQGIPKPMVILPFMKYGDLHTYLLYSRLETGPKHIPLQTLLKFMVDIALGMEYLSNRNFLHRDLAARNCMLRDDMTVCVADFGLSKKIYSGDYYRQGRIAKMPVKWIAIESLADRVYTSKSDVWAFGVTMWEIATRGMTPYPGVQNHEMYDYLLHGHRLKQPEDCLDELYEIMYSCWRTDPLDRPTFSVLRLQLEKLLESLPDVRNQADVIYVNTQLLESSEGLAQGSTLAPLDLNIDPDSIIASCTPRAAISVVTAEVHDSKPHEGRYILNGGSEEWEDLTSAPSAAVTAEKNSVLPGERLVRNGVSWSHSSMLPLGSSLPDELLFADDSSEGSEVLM
Put plainly: Mer kinase inhibition assay (TK-Sub-Biotin / cryptate detection). The data set is classed as biochemical. The note with it: for IC50: means from three independent experiments.

Data set [5] can be described thus: Liver microsome stability assay. It counts as in vitro ADME, human. As to conditions: human, liver microsomes, pH 7.4, human liver microsomes; for microsomal CLint: read-out: CL (intrinsic clearance). (Liver microsomes are vesicles of endoplasmic reticulum, rich in cytochrome P450 enzymes.)

In the case of `CN1CCN(Cc2ccc(-c3cn([C@H]4CC[C@H](O)CC4)c4nc(NCCC5CC5)ncc34)cc2)CC1` [MRX2843], the brain/plasma ration in data set [1] (CNS penetration) is recorded as 0.4.

Regarding `CC(=O)CC(c1ccccc1)c1c(O)c2ccccc2oc1=O` (stereo not drawn) [Warfarin, reference compound], the “Mean Fb” value in data set [2] was 99.0%.

Usually IC50 stands for the concentration needed to halve the response being measured. A low value points to inhibition by little substance. As to `CN1CCC(Oc2ccc(Nc3nccc(Oc4ccc(NC(=O)C5(C(=O)Nc6ccc(F)cc6)CC5)cc4)n3)cc2)CC1` [compound 13a, N-(4-fluorophenyl)-N-(4-((2-((4-((1-methylpiperidin-4-yl)oxy)phenyl)amino)pyrimidin-4-yl)oxy)phenyl)cyclopropane-1,1-dicarboxamide], the IC50 in data set [3] came to 63.3 ± 9.1 nM; in data set [4] it was 21.7 ± 5.8 nM.

Usually half-life stands for how long it takes for the measured level to halve. Higher therefore signals slow loss. Molecule `COCCNc1cccc(Nc2nccc(Oc3ccc(NC(=O)C4(C(=O)Nc5ccc(F)cc5)CC4)cc3)n2)c1` [compound 13b] returned an IC50 in data set [3] of 25.9 ± 7.7 nM. In data set [4], this molecule yielded an IC50 of 24.3 ± 5.7 nM. Further, in data set [5], the half-life worked out at 38.3 min and the microsomal CLint stood at 90.5 µL/min/mg.

Regarding `O=C(Nc1ccc(F)cc1)C1(C(=O)Nc2ccc(Oc3ccnc(Nc4cn[nH]c4)n3)cc2)CC1` [compound 13c, N-(4-((2-((1H-pyrazol-4-yl)amino)pyrimidin-4-yl)oxy)phenyl)-N-(4-fluorophenyl)cyclopropane-1,1-dicarboxamide], the concentration for half-maximal inhibition (IC50) in data set [3] amounted to 48.9 ± 6.4 nM; in data set [4] it was 110 ± 15.7 nM.

Consider `O=C(Nc1ccc(F)cc1)C1(C(=O)Nc2ccc(Oc3ccnc(Nc4cc(F)cc(F)c4)n3)cc2)CC1` [compound 13d, N-(4-((2-((3,5-difluorophenyl)amino)pyrimidin-4-yl)oxy)phenyl)-N-(4-fluorophenyl)cyclopropane-1,1-dicarboxamide], for which the IC50 in data set [3] is 728 ± 131 nM; in data set [4] it was 640 ± 82.2 nM.

In the case of `CC(=O)N1CCN(c2cccc(Nc3nccc(Oc4ccc(NC(=O)C5(C(=O)Nc6ccc(F)cc6)CC5)cc4)n3)c2)CC1` [compound 13e], in data set [3], the “fold improvement over 18c, c-Met IC50” value was determined as 4.5 fold and the IC50 worked out at 7.5 ± 1.1 nM. Besides, in data set [4], the “fold improvement over 18c, Mer IC50” value amounted to 2.5 fold and inhibition was half-maximal at 7.5 ± 1.6 nM (IC50). Moreover, in data set [5], the half-life was determined as 30.4 min and the microsomal CLint stood at 114 µL/min/mg.

`O=C(NC1CCCNC1)c1cccc(Nc2nccc(Oc3ccc(NC(=O)C4(C(=O)Nc5ccc(F)cc5)CC4)cc3)n2)c1` (stereo not drawn) [compound 13f, N-(4-fluorophenyl)-N-(4-((2-((3-(piperidin-3-ylcarbamoyl)phenyl)amino)pyrimidin-4-yl)oxy)phenyl)cyclopropane-1,1-dicarboxamide]: the IC50 in data set [3] and in data set [4] was more than 1000 nM throughout.

As to `O=C(NC1CCCNC1)c1ccc(Nc2nccc(Oc3ccc(NC(=O)C4(C(=O)Nc5ccc(F)cc5)CC4)cc3)n2)cc1` (stereo not drawn) [compound 13g, N-(4-fluorophenyl)-N-(4-((2-((4-(piperidin-3-ylcarbamoyl)phenyl)amino)pyrimidin-4-yl)oxy)phenyl)cyclopropane-1,1-dicarboxamide], the IC50 in data set [3] and in data set [4] was more than 1000 nM throughout.

For the molecule `CN1CCN(C(=O)c2ccc(Nc3nccc(Oc4ccc(NC(=O)C5(C(=O)Nc6ccc(F)cc6)CC5)cc4)n3)cc2)CC1` [compound 13h, N-(4-fluorophenyl)-N-(4-((2-((4-(4-methylpiperazine-1-carbonyl)phenyl)amino)pyrimidin-4-yl)oxy)phenyl)cyclopropane-1,1-dicarboxamide], the figures for the IC50 in data set [3] and in data set [4] were 41.6 ± 8.5 nM and 72 ± 8.9 nM, respectively.

As for `CCN(CC)CCNCC(=O)Nc1ccc(Nc2nccc(Oc3ccc(NC(=O)C4(C(=O)Nc5ccc(F)cc5)CC4)cc3)n2)cc1` [compound 13i, N-(4-((2-((4-(2-((2-(diethylamino)ethyl)amino)acetamido)phenyl)amino)pyrimidin-4-yl)oxy)phenyl)-N-(4-fluorophenyl)cyclopropane-1,1-dicarboxamide], the IC50 in data set [3] is 88.6 ± 13.9 nM; in data set [4], 95.3 ± 20.1 nM.

`CN(C)CCNCC(=O)Nc1ccc(Nc2nccc(Oc3ccc(NC(=O)C4(C(=O)Nc5ccc(F)cc5)CC4)cc3)n2)cc1` [compound 13j]: the IC50 in data set [3] came out at 48.6 ± 11.2 nM; in data set [4], 13.1 ± 2.1 nM. In data set [5], this molecule returned a half-life of 27.9 min. In data set [5], the microsomal CLint amounted to 152 µL/min/mg.

Regarding `COCCN1CCN(CC(=O)Nc2ccc(Nc3nccc(Oc4ccc(NC(=O)C5(C(=O)Nc6ccc(F)cc6)CC5)cc4)n3)cc2)CC1` [compound 13k], in data set [3], the IC50 is 35.4 ± 10 nM. The 50% inhibitory concentration (IC50) in data set [4] was 37.3 ± 10.6 nM. In data set [5], the half-life is 38.4 min and the microsomal CLint is 124 µL/min/mg.

As for `Cc1c(C(=O)Nc2ccc(Oc3ccnc(Nc4ccc(OC5CCN(C)CC5)cc4)n3)cc2)c(=O)n(-c2ccccc2)n1C` [compound 17a, 1,5-dimethyl-N-(4-((2-((4-((1-methylpiperidin-4-yl)oxy)phenyl)amino)pyrimidin-4-yl)oxy)phenyl)-3-oxo-2-phenyl-2,3-dihydro-1H-pyrazole-4-carboxamide], the IC50 in data set [3] came out at 233 ± 25.4 nM; in data set [4], 26.2 ± 7.1 nM.

On to `COCCNc1cccc(Nc2nccc(Oc3ccc(NC(=O)c4c(C)n(C)n(-c5ccccc5)c4=O)cc3)n2)c1` [compound 17b, N-(4-((2-((3-((2-methoxyethyl)amino)phenyl)amino)pyrimidin-4-yl)oxy)phenyl)-1,5-dimethyl-3-oxo-2-phenyl-2,3-dihydro-1H-pyrazole-4-carboxamide], for which the IC50 is 101 ± 18.5 nM in data set [3] and 12.1 ± 1.3 nM in data set [4].

Consider `Cc1c(C(=O)Nc2ccc(Oc3ccnc(Nc4ccc(C(=O)N5CCN(C)CC5)cc4)n3)cc2)c(=O)n(-c2ccccc2)n1C` [compound 17d, 1,5-dimethyl-N-(4-((2-((4-(4-methylpiperazine-1-carbonyl)phenyl)amino)pyrimidin-4-yl)oxy)phenyl)-3-oxo-2-phenyl-2,3-dihydro-1H-pyrazole-4-carboxamide], for which the IC50 came to 137 ± 34.3 nM in data set [3] and 84.1 ± 13.9 nM in data set [4].

For the molecule `CC(=O)N1CCN(c2ccc(Nc3nccc(Oc4ccc(NC(=O)c5c(C)n(C)n(-c6ccccc6)c5=O)cc4)n3)cc2)CC1` [compound 17e, N-(4-((2-((4-(4-acetylpiperazin-1-yl)phenyl)amino)pyrimidin-4-yl)oxy)phenyl)-1,5-dimethyl-3-oxo-2-phenyl-2,3-dihydro-1H-pyrazole-4-carboxamide], the IC50 in data set [3] is 236 ± 25.6 nM; in data set [4], 69.8 ± 12.5 nM.

`CC(=O)N1CCN(c2cccc(Nc3nccc(Oc4ccc(NC(=O)c5c(C)n(C)n(-c6ccccc6)c5=O)cc4)n3)c2)CC1` [compound 17f, N-(4-((2-((3-(4-acetylpiperazin-1-yl)phenyl)amino)pyrimidin-4-yl)oxy)phenyl)-1,5-dimethyl-3-oxo-2-phenyl-2,3-dihydro-1H-pyrazole-4-carboxamide]: in data set [3], the midpoint of inhibition, the IC50, lay at 25 ± 3.5 nM. Further, in data set [4], inhibition was half-maximal at 5.5 ± 0.8 nM (IC50). Besides, in data set [5], the half-life was determined as 51 min and the microsomal CLint was 68 µL/min/mg.

For the molecule `Cc1c(C(=O)Nc2ccc(Oc3ccnc(Nc4ccc(NC(=O)CN5CCN(C)CC5)nc4)n3)cc2)c(=O)n(-c2ccccc2)n1C` [compound 17g, 1,5-dimethyl-N-(4-((2-((6-(2-(4-methylpiperazin-1-yl)acetamido)pyridin-3-yl)amino)pyrimidin-4-yl)oxy)phenyl)-3-oxo-2-phenyl-2,3-dihydro-1H-pyrazole-4-carboxamide], the values for the IC50 in data set [3] and in data set [4] were 140 ± 18.9 nM and more than 1000 nM, respectively.

With `Cc1c(C(=O)Nc2ccc(Oc3ccnc(Nc4ccc(NC(=O)C(C)N5CCN(C)CC5)cc4)n3)cc2)c(=O)n(-c2ccccc2)n1C` (stereo not drawn) [compound 17h, 1,5-dimethyl-N-(4-((2-((4-(2-(4-methylpiperazin-1-yl)propanamido)phenyl)amino)pyrimidin-4-yl)oxy)phenyl)-3-oxo-2-phenyl-2,3-dihydro-1H-pyrazole-4-carboxamide], the IC50 in data set [3] stood at 45 ± 6.8 nM; in data set [4], 11.9 ± 1.7 nM.

For the molecule `CN1CCN(CC(=O)Nc2ccc(Nc3nccc(Oc4ccc(NC(=O)C5(C(=O)Nc6ccc(F)cc6)CC5)cc4)n3)cc2)CC1` [compound 18c], the “oral bioavailability F” value in data set [1] (previous study) is given as 2.84%.
